Data reported in patent US4075332A (priority 1976, dated 1978).
Where two headings read alike, the source gives them in different places.

Key:
[1] = test system: Root-knot nematode; settings: in vivo
[2] = test system: Southern army worm; settings: in vivo; for Southern Army Worm Mortality, %: southern armyworm
[3] = test system: Corn rootworm larvae; test: whole plant or invertebrate; settings: soil, 120 h, read-out: Corn Rootworm Larvae Mortality, % (at 2.5 ppm)
[4] = in vivo; settings: rat, po
[5] = test system: House fly; test: whole plant or invertebrate; settings: Musca domestica, 48 h; for mortality at 20 ppm: read-out: House Fly Spray Mortality, % (at 20 ppm); for mortality at 250 ppm: read-out: Mortality, % - House Flies
[6] = biological target: bovine cholinesterase (Bos taurus, UniProt P23795); test: biochemical; type: biochemical
[7] = test system: Mexican bean beetle; test: whole plant or invertebrate; settings: Epilachna varivestis; for mortality at 50 ppm / mortality at 100 ppm: read-out: Mexican Bean Beetle Larvae Mortality, %
[8] = test system: Bean aphids; test: Aphid, Systemic; type: in vivo, bean aphid; settings: Aphis fabae, 48 h, read-out: Mortality, % - Bean Aphids Systemic
Method: (§1) In the insecticidal and miticidal tests, the experimental compounds were tested as aqueous emulsions. These emulsions were prepared by dissolving the compound in acetone and dispersing it in distilled water with Triton X-100, an alkylaryl polyether alcohol derived by the reaction of i-octylphenol with ethylene oxide, to give spray emulsions containing the desired concentrations of the compound. These emulsions were then used in standard laboratory tests described below.
Aphid, Systemic: Nasturtium plants infested with the bean aphid were treated by applying 20 ml. of the formulated test chemical to the soil. The degree of aphid control was rated after 2 days.

[9] = test system: Black Blow Flies; test: Animal systemic insecticide test in guinea pigs, black blow fly larvae; type: in vivo, black blow fly (host: guinea pig); settings: Calliphoridae, in Cavia porcellus, 24 h, Table XI, read-out: Lowest Dosage (mg/kg) Causing Complete Kill of Larvae of Black Blow Flies
Method: (§2) The experimental compounds, formulated as 5% solutions in Tween 20, were administered orally and subcutaneously to guonea pigs which have been artificially infested with nymphs of the lone star tick at 48 hours before treatment, larvae of the secondary screw worm and of the black blow fly at 24 hours before treatment. Mortality was observed 24 hours after the treatment. For the details of the techniques, reference is made to the publications of R. O. Drummond in the Journal of Economic Entomology, particularly in Vol. 60, pages 733-737 in 1967.

[10] = test system: Spider mites; test: whole plant or invertebrate; settings: Tetranychus urticae, 48 h, read-out: Mortality, % - Spider Mites Contact
[11] = test system: Spider mites; settings: two-spotted spider mite, in vivo, 48 h
[12] = test system: Bean aphids; settings: bean aphid, in vivo, 48 h
[13] = test system: Secondary Screw Worms; test: Animal systemic insecticide test in guinea pigs, secondary screw worm larvae; type: in vivo, secondary screw worm (host: guinea pig); settings: Cavia porcellus, 24 h, Table XI, read-out: Lowest Dosage (mg/kg) Causing Complete Kill of Larvae of Secondary Screw Worms
Method: as §2

[14] = test system: Spider mites; test: Mite, Systemic; type: in vivo, two-spotted mite; settings: Tetranychus urticae, read-out: Mortality, % - Spider Mites Systemic
Method: as §1
Mite, Systemic: Bean plants infested with the two-spotted mites were treated by applying 20 ml. of the formulated test chemical to the soil.

[15] = test system: Southern army worm; test: whole plant or invertebrate; settings: Spodoptera eridania; for mortality at 250 ppm: read-out: Mortality, % - Southern ArmyWorm; for mortality at 50 ppm / mortality at 100 ppm: read-out: Mortality of Southern Armyworm, %
[16] = test system: Bean aphids; test: whole plant or invertebrate; settings: Aphis fabae, 48 h, read-out: Mortality, % - Bean Aphids Contact
[17] = test system: Lone Star Ticks; test: Animal systemic insecticide test in guinea pigs, lone star tick nymphs; type: in vivo, lone star tick (host: guinea pig); settings: Cavia porcellus, 24 h, Table XI, read-out: Lowest Dosage (mg/kg) Causing Complete Kill of Nymphs of Lone Star Ticks
Method: as §2

[18] = Thermal stability of products (GC / nmr observation); type: physicochemical; settings: for thermal stability: general statement
From the text: The corresponding primary alkyl derivatives such as the S'-n-propyl compound are stable under similar conditions.
The ethyl sulfinylmethyl product was unstable at room temperature.

[19] = test system: Corn rootworm larvae; settings: in vivo, 120 h
[20] = test system: bean rust fungus (Uromyces Phaseoli); test: Bean Rust systemic eradicant test; type: in vivo; settings: Table III; 200 ppm
Method: Pinto bean plants were inoculated 24 hours prior to use as above and the soil in the pot was then treated with 20 ml. of an emulsion of the test chemical. The rest of the test and the evaluation were then carried out an above for Bean Powdery Mildew.

[21] = test system: powdery mildew fungus (Erysiphe Polygoni); test: Bean Powdery Mildew eradicant test; type: in vivo; settings: Table III; 200 ppm
[22] = test system: Sclerotium; test: Sclerotium soil fungicide test; type: in vivo; settings: Table III; 100 lb/acre
Method: Sterilized soil was inoculated with Solerotium and placed into a 4-ounce "Dixie cup", and drenched with 20 ml. of an emulsion of the test chemical. The cup was then incubated for 2 days at 70° F. Thereafter, the amount of mycelial growth on the soil surface was rated and the control by the chemical estimated accordingly.

[23] = test system: bean rust fungus (Uromyces Phaseoli); test: Bean Rust eradicant test; type: in vivo; settings: Table III; 200 ppm
Method: In these tests, the experimental compounds were tested in aqueous emulsions, prepared in the same manner as was previously described above with respect to the insecticidal and miticidal tests.
Pinto bean plants with fully expanded primary leaves were inoculated with spores of the bean rust fungus (Uromyces Phaseoli) and incubated for 24 hours. The test were then carried out as described above for Bean Powdery Mildew.

[24] = test system: Corn earworm; test: Field control of corn earworm (Example 27); type: in vivo; settings: Table XV; 1 lbs/acre; untreated check 45
From the text: Spring Gold sween corn was planted on March 21. Each treatment was made on a 48 ft. row and was replicated three times. Ratings represent the total counts from all three replicates. Except for insecticide treatment the plots were managed according to recommended farming practice for the area. Application of the experimental compositions at the 1 lb. active ingredient per acre were made and readings were made to determine the number of infested corn ears.

[25] = read-out: Mortality, % - Mexican Bean Beetle
[26] = read-out: Mortality, % - Mexican Bean Beetles

Chain of bovine cholinesterase (P23795-2 with tags, fused parts or gaps limits assumed): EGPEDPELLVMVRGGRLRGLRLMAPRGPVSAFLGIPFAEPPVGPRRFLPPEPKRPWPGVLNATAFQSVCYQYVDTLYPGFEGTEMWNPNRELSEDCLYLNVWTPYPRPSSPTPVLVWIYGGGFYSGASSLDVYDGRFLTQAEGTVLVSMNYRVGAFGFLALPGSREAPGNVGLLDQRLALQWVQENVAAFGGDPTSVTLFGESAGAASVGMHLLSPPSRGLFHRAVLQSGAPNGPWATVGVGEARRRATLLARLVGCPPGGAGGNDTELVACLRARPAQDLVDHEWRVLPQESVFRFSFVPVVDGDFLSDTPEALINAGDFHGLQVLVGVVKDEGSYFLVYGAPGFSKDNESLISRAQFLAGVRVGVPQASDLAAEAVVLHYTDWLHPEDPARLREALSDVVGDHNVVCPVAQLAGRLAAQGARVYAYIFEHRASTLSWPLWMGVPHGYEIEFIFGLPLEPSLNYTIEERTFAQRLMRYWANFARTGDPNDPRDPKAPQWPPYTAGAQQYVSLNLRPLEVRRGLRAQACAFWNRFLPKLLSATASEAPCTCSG

CCOP(=S)(OCC)SCCSCC [Disyston, reference compound]
Nematodes Rate, Control after 1-4 weeks (at 25#/acre) [1]: 0
Southern Army Worm Mortality, % [2]: 0%
mortality at 2.5 ppm [3]: 0%
LD50 at 336 h [4]: 25 mg/kg
mortality at 20 ppm [5]: 100%
IC50 [6]: 380000 nM
mortality at 50 ppm [7]: 30%

CCCSP(=O)(OCC)SCCSC (stereo not drawn) [Example 1, O-Ethyl S-1-Propyl S'-2-Methylthioethyl Dithiophosphate]
Nematode Control,% at 25 lb/acre [1]: 90%
mortality at 250 ppm [8]: 95%
minimal effective dose ([9]; oral): 50 mg/kg
minimal effective dose ([9]; sc, subcutaneous): 50 mg/kg
Mortality, % - Southern ArmyWorm [2]: 100%
mortality at 250 ppm [10]: 100%
LD50 at 336 h [4]: 46 mg/kg
Mortality, % - Spider Mites Contact [11]: 100%
Mortality, % - Bean Aphids Contact [12]: 100%
mortality at 250 ppm [5]: 100%
minimal effective dose ([13]; oral): 50 mg/kg
minimal effective dose ([13]; sc, subcutaneous): 50 mg/kg
mortality at 250 ppm [14]: 100%
mortality at 250 ppm [15]: 100%
mortality at 250 ppm [16]: 100%
mortality at 250 ppm [7, 25]: 100%
mortality at 250 ppm [7, 26]: 100%
minimal effective dose ([17]; oral): 50 mg/kg
minimal effective dose ([17]; sc, subcutaneous): 50 mg/kg

CCCSP(=O)(OCC)SCCSc1ccccc1 (stereo not drawn) [Example 4, O-Ethyl S-1-Propyl S-2-Phenylthioethyl Dithiophosphate]
mortality at 250 ppm [8]: 20%
minimal effective dose ([9]; oral): > 100 mg/kg
minimal effective dose ([9]; sc, subcutaneous): > 100 mg/kg
mortality at 250 ppm [10]: 100%
mortality at 250 ppm [5]: 95%
minimal effective dose ([13]; oral): > 100 mg/kg
minimal effective dose ([13]; sc, subcutaneous): > 100 mg/kg
mortality at 250 ppm [14]: 40%
mortality at 250 ppm [15]: 100%
mortality at 250 ppm [16]: 95%
mortality at 250 ppm [7, 26]: 100%
minimal effective dose ([17]; oral): > 100 mg/kg
minimal effective dose ([17]; sc, subcutaneous): > 100 mg/kg

CCCSP(=O)(OCC)SCC[S+](C)[O-] (stereo not drawn) [Example 6, O-Ethyl S-1-Propyl S'-2-Methylsulfinylethyl Dithiophosphate]
Nematode Control,% at 25 lb/acre [1]: 100%
mortality at 250 ppm [8]: 100%
minimal effective dose ([9]; oral): 50 mg/kg
minimal effective dose ([9]; sc, subcutaneous): 50 mg/kg
mortality at 250 ppm [10]: 100%
LD50 at 336 h [4]: 46 mg/kg
minimal effective dose ([13]; oral): 100 mg/kg
minimal effective dose ([13]; sc, subcutaneous): 50 mg/kg
mortality at 250 ppm [14]: 100%
mortality at 250 ppm [15]: 100%
mortality at 250 ppm [16]: 100%
mortality at 250 ppm [7, 25]: 100%
minimal effective dose ([17]; oral): 50 mg/kg
minimal effective dose ([17]; sc, subcutaneous): 50 mg/kg

CCOP(=O)(SCCSCC)SC(C)(C)C (stereo not drawn) [Example 10, O-Ethyl S-t-Butyl S'-2-Ethylthioethyl Dithiophosphate]
mortality at 50 ppm [15]: 0%
mortality at 100 ppm [15]: 0%
thermal stability [18]: thermally highly unstable
thermal stability on gas chromatographic analysis ([18]; injector temperature of 200° C): decomposed to yield isobutylene

CCCSP(=O)(OCC)SCSCC (stereo not drawn) [Example 11, O-Ethyl S-1-Propyl S'-Ethylthiomethyl Dithiophosphate]
Nematodes Rate, Control after 1-4 weeks (at 25#/acre) [1]: 100
Southern Army Worm Mortality, % [2]: 100%
mortality at 2.5 ppm [3]: 100%
mortality at 20 ppm [5]: 100%
IC50 [6]: 2700 nM
mortality at 100 ppm [7]: 100%
stability (nmr) ([18]; 60° C): slowly decomposing

CCOP(=O)(SCC)SCC(C)SCC (stereo not drawn) [Example 29, O,S-Diethyl S'-2-Ethylthiopropyl Dithiophosphate]
Pest Control, % - Nematode Control (25 lb/acre) [1]: 20%
Pest Control, % - Corn Rootworm (0.25 ppm) [19]: 20%
Control of Foliar Fungi, % - Bean Rust Systemic Eradicant [20]: 0%
Control of Foliar Fungi, % - Bean Mildew Eradicant [21]: 0%
Control of Sclerotium, % [22]: 0%
Control of Foliar Fungi, % - Bean Rust Eradicant [23]: 0%

CCCSP(=O)(OCC)SCCSCC (stereo not drawn) [Example 30, O-Ethyl 1-Propyl S'-2-Ethylthioethyl Dithiophosphate]
Nematodes Rate, Control after 1-4 weeks (at 25#/acre) [1]: 100
mortality at 250 ppm [8]: 90%
Southern Army Worm Mortality, % [2]: 100%
mortality at 250 ppm [10]: 100%
mortality at 2.5 ppm [3]: 20%
LD50 at 336 h [4]: 318 mg/kg
mortality at 20 ppm [5]: 100%
mortality at 250 ppm [5]: 100%
IC50 ([6]; read-out: Cholinesterase Inhibiting conc. LD50, Mole/Liter, 30 min): 1100 nM
mortality at 250 ppm [14]: 100%
mortality at 50 ppm [15]: 80%
mortality at 100 ppm [15]: 100%
mortality at 250 ppm [15]: 100%
mortality at 250 ppm [16]: 100%
mortality at 50 ppm [7]: 100%
mortality at 250 ppm [7, 26]: 100%

CCCSP(=O)(OCC)SCSc1ccc(Cl)cc1 (stereo not drawn) [Example 31, O-Ethyl S-1-Propyl S'-4-Chlorophenyllthiomethyl Dithiophosphate]
Nematodes Rate, Control after 1-4 weeks (at 25#/acre) [1]: 100
Southern Army Worm Mortality, % [2]: 100%
mortality at 2.5 ppm [3]: 0%
mortality at 20 ppm [5]: 100%
IC50 [6]: 4.1 nM
mortality at 100 ppm [7]: 100%

CCOP(=S)(OCC)SCSCC [Thimet, reference compound]
Nematodes Rate, Control after 1-4 weeks (at 25#/acre) [1]: 0
Southern Army Worm Mortality, % [2]: 0%
mortality at 2.5 ppm [3]: 100%
mortality at 20 ppm [5]: 90%
IC50 [6]: 31000 nM
mortality at 100 ppm [7]: 90%

CCCSP(=O)(OCC)SCCSC (stereo not drawn) [drawing 55]
Number of Infested Corn Ears (150 Ears Sampled) [24]: 2

CCCSP(=O)(OCC)SCC[S+](C)[O-] (stereo not drawn) [drawing 56]
Number of Infested Corn Ears (150 Ears Sampled) [24]: 0

CCCSP(=O)(OCC)SCC(C)SC (stereo not drawn) [drawing 57]
Number of Infested Corn Ears (150 Ears Sampled) [24]: 4

CCOP(=O)(SCC(C)C)SC[S+]([O-])CC (stereo not drawn) [ethylsulfinylmethyl ester, O-ethyl S-isobutyl S'-ethylsulfinylmethyl dithiophosphate]
thermal stability [18]: thermal instability
